In article PMC8222254, “Self-assembly of an anion receptor with metal-dependent kinase inhibition and potent in vitro anti-cancer properties” (Nature Communications, 2021):
Values joined by “and” are separate entries in the source; they are usually repeats but may differ in a detail not shown here. Equal entries are not always repeated.

What was measured:
Assay in all cases: Kinase inhibition screen, cell-free 33P ATP assay at 10 μM
Assay type in all cases: biochemical
[1] = target: 140 purified human kinases (Homo sapiens, UniProt P51617)
140 purified human kinases (Homo sapiens, UniProt P51617), sequence (P51617 whole entry): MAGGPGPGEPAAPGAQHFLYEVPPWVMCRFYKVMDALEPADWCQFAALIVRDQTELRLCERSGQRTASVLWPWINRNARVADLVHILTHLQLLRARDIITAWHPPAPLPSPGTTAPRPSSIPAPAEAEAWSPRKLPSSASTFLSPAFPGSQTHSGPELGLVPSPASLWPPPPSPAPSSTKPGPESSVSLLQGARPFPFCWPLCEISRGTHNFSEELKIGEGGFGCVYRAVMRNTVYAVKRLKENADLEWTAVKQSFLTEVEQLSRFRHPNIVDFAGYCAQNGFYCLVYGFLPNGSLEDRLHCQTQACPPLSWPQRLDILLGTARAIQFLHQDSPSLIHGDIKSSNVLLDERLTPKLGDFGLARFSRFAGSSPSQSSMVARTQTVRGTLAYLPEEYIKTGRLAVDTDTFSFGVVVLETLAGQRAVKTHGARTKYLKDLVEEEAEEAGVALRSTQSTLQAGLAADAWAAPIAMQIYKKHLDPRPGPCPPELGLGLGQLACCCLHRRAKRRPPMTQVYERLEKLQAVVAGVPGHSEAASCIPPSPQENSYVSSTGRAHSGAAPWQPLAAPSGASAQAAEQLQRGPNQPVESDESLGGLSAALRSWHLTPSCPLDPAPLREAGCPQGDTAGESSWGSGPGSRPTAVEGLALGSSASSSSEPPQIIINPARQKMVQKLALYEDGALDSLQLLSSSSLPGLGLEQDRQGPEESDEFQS
Method in brief: (§1)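 Radiometric ^33P ATP cell-free format with purified enzymes; both complexes run at 10 μM in duplicate, results plotted on a kinome map via HGNC symbols.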

[2] = target: 140 purified human kinases (Homo sapiens, UniProt Q9H422)
140 purified human kinases (Homo sapiens, UniProt Q9H422), sequence (Q9H422 whole entry): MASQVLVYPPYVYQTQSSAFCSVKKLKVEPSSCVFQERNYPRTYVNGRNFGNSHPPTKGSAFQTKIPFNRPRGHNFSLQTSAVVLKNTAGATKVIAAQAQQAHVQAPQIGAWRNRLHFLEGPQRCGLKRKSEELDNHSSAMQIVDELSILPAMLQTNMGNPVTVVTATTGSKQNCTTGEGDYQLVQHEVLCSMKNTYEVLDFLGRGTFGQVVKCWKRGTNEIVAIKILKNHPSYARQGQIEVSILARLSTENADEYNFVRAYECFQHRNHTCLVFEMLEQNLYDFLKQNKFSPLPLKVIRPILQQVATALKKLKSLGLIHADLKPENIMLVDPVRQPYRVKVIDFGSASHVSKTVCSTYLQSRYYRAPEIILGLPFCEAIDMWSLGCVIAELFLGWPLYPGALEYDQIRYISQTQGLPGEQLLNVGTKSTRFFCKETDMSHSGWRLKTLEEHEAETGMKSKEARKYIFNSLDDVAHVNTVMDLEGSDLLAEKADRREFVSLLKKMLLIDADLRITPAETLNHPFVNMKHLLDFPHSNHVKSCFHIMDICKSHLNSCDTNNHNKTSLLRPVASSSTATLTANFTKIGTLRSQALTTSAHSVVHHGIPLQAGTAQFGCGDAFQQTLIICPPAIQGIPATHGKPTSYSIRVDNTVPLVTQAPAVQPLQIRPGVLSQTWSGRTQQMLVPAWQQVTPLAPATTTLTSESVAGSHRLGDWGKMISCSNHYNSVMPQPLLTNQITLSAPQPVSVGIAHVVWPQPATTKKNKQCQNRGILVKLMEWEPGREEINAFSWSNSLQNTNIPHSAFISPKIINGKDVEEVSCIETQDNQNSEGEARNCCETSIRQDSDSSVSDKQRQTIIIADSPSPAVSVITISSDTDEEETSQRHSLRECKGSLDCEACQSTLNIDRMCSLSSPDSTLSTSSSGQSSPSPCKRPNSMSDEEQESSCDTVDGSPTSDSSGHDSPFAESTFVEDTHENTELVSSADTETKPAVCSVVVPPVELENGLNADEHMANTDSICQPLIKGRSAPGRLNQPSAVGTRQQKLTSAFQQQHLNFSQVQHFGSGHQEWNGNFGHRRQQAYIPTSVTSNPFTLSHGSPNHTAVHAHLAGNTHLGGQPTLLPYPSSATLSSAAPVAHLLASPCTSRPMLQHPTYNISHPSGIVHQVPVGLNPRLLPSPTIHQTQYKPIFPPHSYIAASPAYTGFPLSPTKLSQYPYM
Method in brief: as §1

[3] = target: 140 purified human kinases (Homo sapiens, UniProt O96013)
140 purified human kinases (Homo sapiens, UniProt O96013), sequence (O96013 whole entry): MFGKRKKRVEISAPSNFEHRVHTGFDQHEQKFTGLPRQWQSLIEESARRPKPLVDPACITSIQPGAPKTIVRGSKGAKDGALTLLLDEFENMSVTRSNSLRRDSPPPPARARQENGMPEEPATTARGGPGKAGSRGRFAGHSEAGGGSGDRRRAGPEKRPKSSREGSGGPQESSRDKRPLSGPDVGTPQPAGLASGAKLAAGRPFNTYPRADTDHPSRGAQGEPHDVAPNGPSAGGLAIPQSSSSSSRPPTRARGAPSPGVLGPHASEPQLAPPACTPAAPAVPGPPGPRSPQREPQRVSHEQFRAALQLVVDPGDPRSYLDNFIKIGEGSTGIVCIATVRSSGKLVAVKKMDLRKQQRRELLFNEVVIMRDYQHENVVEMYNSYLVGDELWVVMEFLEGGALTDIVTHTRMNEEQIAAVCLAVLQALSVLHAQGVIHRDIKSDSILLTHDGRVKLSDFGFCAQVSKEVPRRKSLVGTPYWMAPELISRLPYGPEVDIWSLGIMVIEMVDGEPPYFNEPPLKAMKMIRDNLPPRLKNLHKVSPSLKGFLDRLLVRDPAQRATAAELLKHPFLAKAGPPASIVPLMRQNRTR
Method in brief: as §1

[4] = target: 140 purified human kinases (Homo sapiens, UniProt P31751); details: PKBb
140 purified human kinases (Homo sapiens, UniProt P31751), sequence (P31751 whole entry): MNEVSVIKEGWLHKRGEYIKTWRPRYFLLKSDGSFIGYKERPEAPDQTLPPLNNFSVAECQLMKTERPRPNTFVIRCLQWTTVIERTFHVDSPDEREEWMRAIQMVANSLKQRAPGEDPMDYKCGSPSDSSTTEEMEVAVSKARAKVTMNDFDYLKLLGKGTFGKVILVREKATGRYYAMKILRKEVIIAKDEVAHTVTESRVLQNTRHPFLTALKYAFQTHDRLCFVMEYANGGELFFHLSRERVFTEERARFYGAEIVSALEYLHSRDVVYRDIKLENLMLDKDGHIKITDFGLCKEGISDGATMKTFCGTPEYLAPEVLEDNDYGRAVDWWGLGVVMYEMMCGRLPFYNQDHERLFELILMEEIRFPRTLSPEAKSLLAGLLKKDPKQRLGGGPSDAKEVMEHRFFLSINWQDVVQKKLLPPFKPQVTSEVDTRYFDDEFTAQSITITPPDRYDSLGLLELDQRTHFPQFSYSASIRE
Method in brief: as §1

[5] = target: T1, 140 purified human kinases (Homo sapiens, UniProt Q8IYT8)
T1 sequence (Q8IYT8 1-1036): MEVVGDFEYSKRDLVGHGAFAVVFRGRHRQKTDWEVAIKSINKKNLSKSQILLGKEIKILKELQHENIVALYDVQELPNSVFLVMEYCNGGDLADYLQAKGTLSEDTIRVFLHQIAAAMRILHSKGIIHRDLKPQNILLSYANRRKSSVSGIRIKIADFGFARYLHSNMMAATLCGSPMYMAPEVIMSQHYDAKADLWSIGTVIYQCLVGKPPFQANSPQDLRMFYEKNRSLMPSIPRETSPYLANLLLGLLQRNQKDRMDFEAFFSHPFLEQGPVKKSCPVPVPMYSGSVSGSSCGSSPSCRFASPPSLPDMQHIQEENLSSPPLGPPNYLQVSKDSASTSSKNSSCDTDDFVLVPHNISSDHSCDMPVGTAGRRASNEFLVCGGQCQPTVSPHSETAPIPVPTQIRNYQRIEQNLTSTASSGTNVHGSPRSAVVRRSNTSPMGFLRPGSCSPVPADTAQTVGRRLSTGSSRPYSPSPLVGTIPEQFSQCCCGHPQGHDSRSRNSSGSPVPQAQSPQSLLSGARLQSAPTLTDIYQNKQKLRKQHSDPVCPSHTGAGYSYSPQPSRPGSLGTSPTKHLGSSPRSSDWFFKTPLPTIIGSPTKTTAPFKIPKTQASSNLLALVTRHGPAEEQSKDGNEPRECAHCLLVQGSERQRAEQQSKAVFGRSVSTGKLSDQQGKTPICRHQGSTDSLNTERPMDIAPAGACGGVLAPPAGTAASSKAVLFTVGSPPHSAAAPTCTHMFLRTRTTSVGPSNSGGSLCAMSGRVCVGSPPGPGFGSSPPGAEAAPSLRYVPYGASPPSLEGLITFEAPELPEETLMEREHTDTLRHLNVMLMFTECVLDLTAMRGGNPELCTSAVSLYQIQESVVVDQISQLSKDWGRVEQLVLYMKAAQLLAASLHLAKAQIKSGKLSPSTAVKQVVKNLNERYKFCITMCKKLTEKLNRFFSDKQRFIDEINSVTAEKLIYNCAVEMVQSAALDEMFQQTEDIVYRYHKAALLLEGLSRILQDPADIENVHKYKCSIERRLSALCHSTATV
Method in brief: as §1

[6] = target: 140 purified human kinases (Homo sapiens, UniProt Q9P1W9)
140 purified human kinases (Homo sapiens, UniProt Q9P1W9), sequence (Q9P1W9 whole entry): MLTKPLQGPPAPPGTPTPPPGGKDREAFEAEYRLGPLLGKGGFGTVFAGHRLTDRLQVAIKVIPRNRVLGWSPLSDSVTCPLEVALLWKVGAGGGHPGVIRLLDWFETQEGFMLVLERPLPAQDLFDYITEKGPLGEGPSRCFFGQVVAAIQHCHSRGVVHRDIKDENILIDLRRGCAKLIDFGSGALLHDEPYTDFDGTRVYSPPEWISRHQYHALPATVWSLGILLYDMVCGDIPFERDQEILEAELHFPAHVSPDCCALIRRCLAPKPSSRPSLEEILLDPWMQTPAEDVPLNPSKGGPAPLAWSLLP
Method in brief: as §1

[7] = target: 140 purified human kinases (Homo sapiens, UniProt Q06187); details: BTK
140 purified human kinases (Homo sapiens, UniProt Q06187), sequence (Q06187 whole entry): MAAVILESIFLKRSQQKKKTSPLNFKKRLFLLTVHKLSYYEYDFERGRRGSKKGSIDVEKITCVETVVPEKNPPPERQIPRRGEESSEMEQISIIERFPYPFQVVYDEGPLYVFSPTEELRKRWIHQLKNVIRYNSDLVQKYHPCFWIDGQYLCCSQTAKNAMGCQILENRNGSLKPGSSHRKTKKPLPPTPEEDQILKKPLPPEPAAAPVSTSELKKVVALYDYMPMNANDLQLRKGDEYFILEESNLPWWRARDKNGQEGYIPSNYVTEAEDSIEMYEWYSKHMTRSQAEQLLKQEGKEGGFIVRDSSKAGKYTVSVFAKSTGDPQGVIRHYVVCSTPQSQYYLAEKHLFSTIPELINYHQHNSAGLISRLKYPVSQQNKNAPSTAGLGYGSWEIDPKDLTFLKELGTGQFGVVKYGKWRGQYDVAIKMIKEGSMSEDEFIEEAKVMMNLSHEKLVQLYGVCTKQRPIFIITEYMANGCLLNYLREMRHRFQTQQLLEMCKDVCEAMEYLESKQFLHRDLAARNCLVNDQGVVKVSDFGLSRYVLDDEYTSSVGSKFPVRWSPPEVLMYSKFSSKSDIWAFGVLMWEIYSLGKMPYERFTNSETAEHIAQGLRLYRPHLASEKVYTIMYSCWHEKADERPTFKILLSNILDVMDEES
Method in brief: as §1

[8] = target: T2, 140 purified human kinases (Homo sapiens, UniProt O14920); details: IKKb; for % Activity inhibition Mean / % Activity inhibition Run 1 / % Activity inhibition Run 2 / % Activity remaining Run 1 / % Activity remaining Run 2: 10 µM
T2 sequence (O14920 1-756): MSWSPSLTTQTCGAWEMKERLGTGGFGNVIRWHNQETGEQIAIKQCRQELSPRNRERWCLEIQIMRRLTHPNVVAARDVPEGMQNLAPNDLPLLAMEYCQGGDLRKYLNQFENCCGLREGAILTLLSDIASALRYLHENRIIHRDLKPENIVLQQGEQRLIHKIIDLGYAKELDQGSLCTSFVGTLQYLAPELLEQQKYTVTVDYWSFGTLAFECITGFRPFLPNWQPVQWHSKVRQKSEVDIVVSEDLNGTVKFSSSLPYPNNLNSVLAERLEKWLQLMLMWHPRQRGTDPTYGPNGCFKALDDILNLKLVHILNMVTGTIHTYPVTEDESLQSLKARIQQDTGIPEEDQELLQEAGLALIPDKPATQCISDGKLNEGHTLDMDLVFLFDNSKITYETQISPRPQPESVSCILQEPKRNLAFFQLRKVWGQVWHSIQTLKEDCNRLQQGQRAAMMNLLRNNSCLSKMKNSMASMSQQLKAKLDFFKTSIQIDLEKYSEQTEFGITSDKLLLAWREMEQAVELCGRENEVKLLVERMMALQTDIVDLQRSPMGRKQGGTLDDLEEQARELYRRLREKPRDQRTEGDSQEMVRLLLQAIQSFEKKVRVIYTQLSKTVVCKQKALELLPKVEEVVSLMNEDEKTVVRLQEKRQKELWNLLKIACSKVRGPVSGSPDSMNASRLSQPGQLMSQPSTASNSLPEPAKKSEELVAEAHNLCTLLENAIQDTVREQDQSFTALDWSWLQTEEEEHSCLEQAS
Method in brief: as §1

CC(=O)[O-].CC(=O)[O-].CC(=O)[O-].CC(=O)[O-].CC(=O)[O-].CC(=O)[O-].[Zn+2].[Zn+2].[Zn+2].c1ccc(-c2csc(NCCN(CCNc3nc(-c4ccccn4)cs3)CCNc3nc(-c4ccccn4)cs3)n2)nc1.c1ccc(-c2csc(NCCN(CCNc3nc(-c4ccccn4)cs3)CCNc3nc(-c4ccccn4)cs3)n2)nc1 [[L2Zn3]6+]
% Inhibition, Mean ([1]; IRAK1): 11%
mean % activity ([1]; IRAK1): 89%
% activity ([1]; IRAK1, duplicate runs): 97% and 81%
% Inhibition, Mean ([2]; HIPK3): 15%
mean % activity ([2]; HIPK3): 85%
% activity ([2]; HIPK3, duplicate runs): 97% and 72%
% Activation, Mean value ([3]; PAK4): 20%
% Inhibition, Mean ([3]; PAK4): -20%
mean % activity ([3]; PAK4): 120%
% Activity Run 1 ([3]; PAK4, 10 µM): 110.0%
% Activity Run 2 ([3]; PAK4, 10 µM): 130.0%
% activity ([3]; PAK4, duplicate runs): 110% and 130%
% Inhibition, Mean [4]: 65%
% Inhibition, Run 1 / Run 2 [4]: 76% and 55%
mean % activity [4]: 35%
% activity ([4]; duplicate runs): 24% and 45%
% Activation, Mean value ([5]; ULK2): 2%
% Inhibition, Mean ([5]; ULK2): -2%
mean % activity ([5]; ULK2): 102%
% activity ([5]; ULK2, duplicate runs): 95% and 109%
% Inhibition, Mean ([6]; PIM2): 1.85%
mean % activity ([6]; PIM2): 98%
% activity ([6]; PIM2, duplicate runs): 87% and 109%
% Inhibition, Mean [7]: 47%
% Inhibition, Run 1 / Run 2 [7]: 56% and 39%
mean % activity [7]: 53%
% activity ([7]; duplicate runs): 45% and 61%
% Inhibition, Mean [8]: 92%
% Inhibition, Run 1 / Run 2 [8]: 94% and 90%
mean % activity [8]: 8%
% Activity inhibition Mean [8]: 92.0%
% Activity inhibition Run 1 [8]: 94%
% Activity inhibition Run 2 [8]: 90%
% Activity remaining Run 1 [8]: 6%
% Activity remaining Run 2 [8]: 10%
% activity ([8]; duplicate runs): 6% and 10%

[Cu+2].[Cu+2].[Cu+2].c1ccc(-c2csc(NCCN(CCNc3nc(-c4ccccn4)cs3)CCNc3nc(-c4ccccn4)cs3)n2)nc1.c1ccc(-c2csc(NCCN(CCNc3nc(-c4ccccn4)cs3)CCNc3nc(-c4ccccn4)cs3)n2)nc1 [[L2Cu3]6+]
% Inhibition Run 1 ([1]; IRAK1): 41.6%
% Inhibition Run 2 ([1]; IRAK1): 44.4%
% Inhibition, Mean ([1]; IRAK1): 43%
mean % activity ([1]; IRAK1): 57%
% activity ([1]; IRAK1, Run 1): 58.4%
% activity ([1]; IRAK1, Run 2): 55.6%
% Inhibition Run 1 ([2]; HIPK3): 56.3%
% Inhibition Run 2 ([2]; HIPK3): 58.6%
% Inhibition, Mean ([2]; HIPK3): 57%
mean % activity ([2]; HIPK3): 43%
% activity ([2]; HIPK3, Run 1): 43.7%
% activity ([2]; HIPK3, Run 2): 41.4%
% Inhibition Run 1 ([3]; PAK4): 23.3%
% Inhibition Run 2 ([3]; PAK4): 36.6%
% Inhibition, Mean ([3]; PAK4): 30%
mean % activity ([3]; PAK4): 70%
% activity ([3]; PAK4, Run 1): 76.7%
% activity ([3]; PAK4, Run 2): 63.4%
% Inhibition Run 1 [4]: 91.7%
% Inhibition Run 2 [4]: 93.5%
% Inhibition, Mean [4]: 93%
mean % activity [4]: 7.4%
% activity ([4]; Run 1): 8.3%
% activity ([4]; Run 2): 6.5%
% Activity inhibition Mean ([4]; 10 µM): 92.6%
% Activity inhibition Run 1 ([4]; 10 µM): 91.7%
% Activity inhibition Run 2 ([4]; 10 µM): 93.5%
% Activity remaining Run 1 ([4]; 10 µM): 8.30%
% Activity remaining Run 2 ([4]; 10 µM): 6.50%
% Inhibition Run 1 ([5]; ULK2): 48%
% Inhibition Run 2 ([5]; ULK2): 52.6%
% Inhibition, Mean ([5]; ULK2): 50%
mean % activity ([5]; ULK2): 50%
% activity ([5]; ULK2, Run 1): 52%
% activity ([5]; ULK2, Run 2): 47.4%
% Inhibition Run 1 ([6]; PIM2): -3.6%
% Inhibition Run 2 ([6]; PIM2): 7%
% Inhibition, Mean ([6]; PIM2): 1.7%
mean % activity ([6]; PIM2): 98%
% activity ([6]; PIM2, Run 1): 103.6%
% activity ([6]; PIM2, Run 2): 93%
% Inhibition Run 1 [7]: 88.8%
% Inhibition Run 2 [7]: 82.3%
% Inhibition, Mean [7]: 86%
mean % activity [7]: 14%
% activity ([7]; Run 1): 11.2%
% activity ([7]; Run 2): 17.7%
% Inhibition Run 1 [8]: 92.1%
% Inhibition Run 2 [8]: 92.5%
% Inhibition, Mean [8]: 92%
mean % activity [8]: 8%
% activity ([8]; Run 1): 7.9%
% activity ([8]; Run 2): 7.5%
% Activity inhibition Mean [8]: 92.3%
% Activity inhibition Run 1 [8]: 92.1%
% Activity inhibition Run 2 [8]: 92.5%
% Activity remaining Run 1 [8]: 7.90%
% Activity remaining Run 2 [8]: 7.50%
